# Results from PubChem BioAssay AID2060902 (Molecular Pharmacology Branch, DTP, NCI, 2025).
# System: 485368-065-R3-J5-PDC spheroids with HUVEC/MSC, viability
# Experiment: Anticancer human tumor 485368-065-R3-J5-PDC patient-derived pancreatic carcinoma cell line growth inhibition [RAS]
# Details: for IC50: curve of first compound; for viability, T/C: stronger effect = lower value
# Procedure, shortened: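 Agents were tested in combination matrices in half-log decrements from a top concentration at or near clinical Cmax (10 microM if undetermined). Targets were multi-cell spheroids of tumour lines plus HUVEC and MSC stromal cells.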
# [1] = second compound 0.000949 µM, first compound 0.0316 µM
# [2] = second compound 0.000949 µM, first compound 0.1 µM
# [3] = second compound 0.000949 µM, first compound 0.316 µM
# [4] = second compound 0.000949 µM, first compound 1 µM
# [5] = second compound 0.000949 µM, first compound 3.16 µM
# [6] = second compound 0.000949 µM, first compound 10 µM
# [7] = second compound 0.003 µM, first compound 0.0316 µM
# [8] = second compound 0.003 µM, first compound 0.1 µM
# [9] = second compound 0.003 µM, first compound 0.316 µM
# [10] = second compound 0.003 µM, first compound 1 µM
# [11] = second compound 0.003 µM, first compound 3.16 µM
# [12] = second compound 0.003 µM, first compound 10 µM
# [13] = second compound 0.00949 µM, first compound 0.0316 µM
# [14] = second compound 0.00949 µM, first compound 0.1 µM
# [15] = second compound 0.00949 µM, first compound 0.316 µM
# [16] = second compound 0.00949 µM, first compound 1 µM
# [17] = second compound 0.00949 µM, first compound 3.16 µM
# [18] = second compound 0.00949 µM, first compound 10 µM
# [19] = second compound 0.03 µM, first compound 0.0316 µM
# [20] = second compound 0.03 µM, first compound 0.1 µM
# [21] = second compound 0.03 µM, first compound 0.316 µM
# [22] = second compound 0.03 µM, first compound 1 µM
# [23] = second compound 0.03 µM, first compound 3.16 µM
# [24] = second compound 0.03 µM, first compound 10 µM
# [25] = second compound 0.0949 µM, first compound 0.0316 µM
# [26] = second compound 0.0949 µM, first compound 0.1 µM
# [27] = second compound 0.0949 µM, first compound 0.316 µM
# [28] = second compound 0.0949 µM, first compound 1 µM
# [29] = second compound 0.0949 µM, first compound 3.16 µM
# [30] = second compound 0.0949 µM, first compound 10 µM
# [31] = second compound 0.3 µM, first compound 0.0316 µM
# [32] = second compound 0.3 µM, first compound 0.1 µM
# [33] = second compound 0.3 µM, first compound 0.316 µM
# [34] = second compound 0.3 µM, first compound 1 µM
# [35] = second compound 0.3 µM, first compound 3.16 µM
# [36] = second compound 0.3 µM, first compound 10 µM
# 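Note: spheroids exposed to agents for seven days before readout.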
smiles,measurement,setting,value
Cc1nc(N2CCC3(CC2)COC(C)C3N)c(CO)nc1Sc1ccnc(N)c1Cl (stereo unspecified) + CCn1c(-c2cc(N3CCN(C)CC3)cnc2C(C)OC)c2c3cc(ccc31)-c1csc(n1)CC(NC(=O)C1CC1C)C(=O)N1CCCC(N1)C(=O)OCC(C)(C)C2,IC50,second compound 0.000949 µM,< 31.6 nM
same,IC50,second compound 0.003 µM,< 31.6 nM
same,IC50,second compound 0.00949 µM,< 31.6 nM
same,IC50,second compound 0.03 µM,< 31.6 nM
same,IC50,second compound 0.0949 µM,< 31.6 nM
same,IC50,second compound 0.3 µM,< 31.6 nM
same,"viability, T/C",[1],26.1%
same,"viability, T/C",[2],18.6%
same,"viability, T/C",[3],17.5%
same,"viability, T/C",[4],15%
same,"viability, T/C",[5],11.8%
same,"viability, T/C",[6],8.82%
same,"viability, T/C",[7],18.4%
same,"viability, T/C",[8],15.9%
same,"viability, T/C",[9],12.8%
same,"viability, T/C",[10],10.7%
same,"viability, T/C",[11],7.85%
same,"viability, T/C",[12],4.73%
same,"viability, T/C",[13],13.4%
same,"viability, T/C",[14],12%
same,"viability, T/C",[15],9.63%
same,"viability, T/C",[16],9.5%
same,"viability, T/C",[17],4.66%
same,"viability, T/C",[18],2.44%
same,"viability, T/C",[19],10.6%
same,"viability, T/C",[20],10.2%
same,"viability, T/C",[21],8.7%
same,"viability, T/C",[22],5.25%
same,"viability, T/C",[23],2.49%
same,"viability, T/C",[24],1.01%
same,"viability, T/C",[25],8.37%
same,"viability, T/C",[26],8.31%
same,"viability, T/C",[27],6.58%
same,"viability, T/C",[28],3.11%
same,"viability, T/C",[29],1.36%
same,"viability, T/C",[30],0.74%
same,"viability, T/C",[31],7.17%
same,"viability, T/C",[32],6.81%
same,"viability, T/C",[33],5.18%
same,"viability, T/C",[34],2.89%
same,"viability, T/C",[35],1.79%
same,"viability, T/C",[36],0.68%
NC1c2ccccc2OC12CCN(c1cnc3c(N4CCCc5ncccc54)n[nH]c3n1)CC2 (stereo unspecified) + CCn1c(-c2cc(N3CCN(C)CC3)cnc2C(C)OC)c2c3cc(ccc31)-c1csc(n1)CC(NC(=O)C1CC1C)C(=O)N1CCCC(N1)C(=O)OCC(C)(C)C2,IC50,second compound 0.000949 µM,< 31.6 nM
same,IC50,second compound 0.003 µM,< 31.6 nM
same,IC50,second compound 0.00949 µM,< 31.6 nM
same,IC50,second compound 0.03 µM,< 31.6 nM
same,IC50,second compound 0.0949 µM,< 31.6 nM
same,IC50,second compound 0.3 µM,< 31.6 nM
same,"viability, T/C",[1],20.7%
same,"viability, T/C",[2],16%
same,"viability, T/C",[3],14.1%
same,"viability, T/C",[4],10.6%
same,"viability, T/C",[5],5.97%
same,"viability, T/C",[6],4.14%
same,"viability, T/C",[7],15.1%
same,"viability, T/C",[8],12.5%
same,"viability, T/C",[9],9.36%
same,"viability, T/C",[10],4.72%
same,"viability, T/C",[11],3.77%
same,"viability, T/C",[12],1.44%
same,"viability, T/C",[13],12.7%
same,"viability, T/C",[14],8.1%
same,"viability, T/C",[15],5.43%
same,"viability, T/C",[16],2.3%
same,"viability, T/C",[17],2.03%
same,"viability, T/C",[18],0.85%
same,"viability, T/C",[19],7.1%
same,"viability, T/C",[20],6.69%
same,"viability, T/C",[21],3.1%
same,"viability, T/C",[22],1.62%
same,"viability, T/C",[23],0.67%
same,"viability, T/C",[24],0.58%
same,"viability, T/C",[25],6.28%
same,"viability, T/C",[26],4.31%
same,"viability, T/C",[27],2.01%
same,"viability, T/C",[28],0.85%
same,"viability, T/C",[29],0.88%
same,"viability, T/C",[30],0.54%
same,"viability, T/C",[31],6.78%
same,"viability, T/C",[32],3.56%
same,"viability, T/C",[33],2.12%
same,"viability, T/C",[34],1%
same,"viability, T/C",[35],0.91%
same,"viability, T/C",[36],0.53%
Nc1ccn(C2OC(CO)C(O)C2(F)F)c(=O)n1 (stereo unspecified) + CCn1c(-c2cc(N3CCN(C)CC3)cnc2C(C)OC)c2c3cc(ccc31)-c1csc(n1)CC(NC(=O)C1CC1C)C(=O)N1CCCC(N1)C(=O)OCC(C)(C)C2,IC50,second compound 0.000949 µM,< 3.16 nM
same,IC50,second compound 0.003 µM,< 3.16 nM
same,IC50,second compound 0.00949 µM,< 3.16 nM
same,IC50,second compound 0.03 µM,< 3.16 nM
same,IC50,second compound 0.0949 µM,< 3.16 nM
same,IC50,second compound 0.3 µM,< 3.16 nM
same,"viability, T/C","second compound 0.000949 µM, first compound 0.00316 µM",31%
same,"viability, T/C","second compound 0.000949 µM, first compound 0.01 µM",15.8%
same,"viability, T/C",[1],8.79%
same,"viability, T/C",[2],6.33%
same,"viability, T/C",[3],6.11%
same,"viability, T/C",[4],5.93%
same,"viability, T/C","second compound 0.003 µM, first compound 0.00316 µM",18.5%
same,"viability, T/C","second compound 0.003 µM, first compound 0.01 µM",12.8%
same,"viability, T/C",[7],9.81%
same,"viability, T/C",[8],6.58%
same,"viability, T/C",[9],9.3%
same,"viability, T/C",[10],6.96%
same,"viability, T/C","second compound 0.00949 µM, first compound 0.00316 µM",13.5%
same,"viability, T/C","second compound 0.00949 µM, first compound 0.01 µM",10.9%
same,"viability, T/C",[13],9.06%
same,"viability, T/C",[14],8.14%
same,"viability, T/C",[15],8.28%
same,"viability, T/C",[16],7.89%
same,"viability, T/C","second compound 0.03 µM, first compound 0.00316 µM",10.7%
same,"viability, T/C","second compound 0.03 µM, first compound 0.01 µM",11%
same,"viability, T/C",[19],7.61%
same,"viability, T/C",[20],6.76%
same,"viability, T/C",[21],7.98%
same,"viability, T/C",[22],6.7%
same,"viability, T/C","second compound 0.0949 µM, first compound 0.00316 µM",9.63%
same,"viability, T/C","second compound 0.0949 µM, first compound 0.01 µM",8.06%
same,"viability, T/C",[25],7.29%
same,"viability, T/C",[26],5.92%
same,"viability, T/C",[27],6.25%
same,"viability, T/C",[28],6.08%
same,"viability, T/C","second compound 0.3 µM, first compound 0.00316 µM",6.95%
same,"viability, T/C","second compound 0.3 µM, first compound 0.01 µM",7.22%
same,"viability, T/C",[31],7.67%
same,"viability, T/C",[32],5.52%
same,"viability, T/C",[33],7.58%
same,"viability, T/C",[34],6.63%
